Data on 30 compounds can be found in ChEMBL document CHEMBL2176890, “2-(3-fluoro-4-methylsulfonylaminophenyl)propanamides as potent transient receptor potential vanilloid 1 (TRPV1) antagonists: structure-activity relationships of 2-amino derivatives in the N-(6-trifluoromethylpyridin-3-ylmethyl) C-region” (J Med Chem, 2012).

Data set [1] has as its system Rattus norvegicus. Kind of data set: Toxicity in po dosed CCI-induced Sprague-Dawley rat neuropathic pain model assessed as decreased locomotion. The settings on record: in vivo. In kind it is organism-based.
For data set [2], the system named is Rattus norvegicus. Kind of data set: Toxicity in po dosed CCI-induced Sprague-Dawley rat neuropathic pain model assessed as sedation. In kind it is organism-based. The settings on record: in vivo.
Data set [3] relates to Rattus norvegicus. Kind of data set: Analgesic activity in CCI-induced Sprague-Dawley rat neuropathic pain model assessed as reduction in paw withdrawal measured 30 mins after po administration. In kind it is functional, organism-based.
Data set [4] addresses T1, Transient receptor potential cation channel subfamily V member 1 (Homo sapiens, UniProt Q8NER1). Kind of data set: Antagonist activity at human TRPV1 expressed in CHOK1 cells assessed as inhibition of N-acetyldopamine-induced activity after 5 mins by FLIPR assay. In kind it is functional, cell-based, CHO-K1.
Data set [5] has as its target T1, Transient receptor potential cation channel subfamily V member 1. Kind of data set: Antagonist activity at human TRPV1 expressed in CHOK1 cells assessed as inhibition of heat-induced activity after 5 mins by FLIPR assay. In kind it is functional, cell-based, CHO-K1.
For data set [6] the target is unchanged. The data set can be described thus: Antagonist activity at human TRPV1 expressed in CHOK1 cells assessed as inhibition of pH-induced activity by FLIPR assay. In kind it is functional, cell-based, CHO-K1.
Data set [7] shares this target. Kind of data set: Antagonist activity at human TRPV1 expressed in CHOK1 cells assessed as inhibition of capsaicin-induced activity by FLIPR assay. In kind it is functional, cell-based, CHO-K1.
Data set [8] relates to Mus musculus. Kind of data set: Inhibition of capsaicin-induced hypothermia in NMRI mouse at 0.3 mg/kg, po administered 15 mins prior challenge. In kind it is functional, organism-based. More on the design: dose 0.3 mg/kg.
Data set [9] deals with Rattus norvegicus. Kind of data set: Analgesic activity in CCI-induced Sprague-Dawley rat neuropathic pain model assessed as reduction in paw withdrawal at 3.16 mg/kg, po after 45 mins. In kind it is functional.
In data set [10] the test system is Rattus norvegicus. Kind of data set: Analgesic activity in CCI-induced Sprague-Dawley rat neuropathic pain model assessed as reduction in paw withdrawal measured 45 mins after po administration. In kind it is functional.
In data set [11] the test system is Mus musculus. Kind of data set: Acute toxicity in C57BL/6J mouse assessed as hyperthermia at 1 mg/kg, po at 45 to 60 mins. The settings on record: in vivo.
Data set [12] deals with Mus musculus. Kind of data set: Acute toxicity in TRPV1 knockout mouse assessed as hyperthermia at 1 mg/kg, po at 45 to 60 mins. The settings on record: in vivo.

Each structure is given as a SMILES string. The source made the active and inactive calls. No cut-off for these calls is given here.

T1 sequence (Q8NER1 whole entry): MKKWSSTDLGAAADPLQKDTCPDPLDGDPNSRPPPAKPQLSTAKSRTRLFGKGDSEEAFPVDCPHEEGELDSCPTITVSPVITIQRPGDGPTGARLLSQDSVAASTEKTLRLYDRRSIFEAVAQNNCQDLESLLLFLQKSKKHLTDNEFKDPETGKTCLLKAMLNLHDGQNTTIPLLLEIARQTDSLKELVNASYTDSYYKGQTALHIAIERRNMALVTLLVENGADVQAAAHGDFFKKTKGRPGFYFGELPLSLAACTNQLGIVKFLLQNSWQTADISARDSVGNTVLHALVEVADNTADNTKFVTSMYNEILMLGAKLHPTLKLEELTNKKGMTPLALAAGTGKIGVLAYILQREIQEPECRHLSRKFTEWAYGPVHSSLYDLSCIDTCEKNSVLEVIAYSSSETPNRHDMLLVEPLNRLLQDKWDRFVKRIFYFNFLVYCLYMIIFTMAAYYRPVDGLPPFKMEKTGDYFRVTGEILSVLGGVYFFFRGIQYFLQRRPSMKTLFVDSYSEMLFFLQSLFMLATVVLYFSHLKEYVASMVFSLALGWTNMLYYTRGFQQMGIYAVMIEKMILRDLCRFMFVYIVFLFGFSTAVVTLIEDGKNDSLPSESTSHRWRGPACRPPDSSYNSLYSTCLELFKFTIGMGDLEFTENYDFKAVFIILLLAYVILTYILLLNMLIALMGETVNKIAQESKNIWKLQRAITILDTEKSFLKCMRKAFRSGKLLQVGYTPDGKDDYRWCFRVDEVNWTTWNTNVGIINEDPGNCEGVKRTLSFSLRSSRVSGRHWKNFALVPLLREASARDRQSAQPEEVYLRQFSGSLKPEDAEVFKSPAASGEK

By Ki is commonly meant the dissociation constant of the complex between target and ligand, obtained from inhibition or displacement. For orientation: IC50 means the concentration that gives 50% inhibition. For the compound `C[C@H](C(=O)NCc1ccc(C(C)(C)C)cc1)c1ccc(NS(C)(=O)=O)c(F)c1`, the Activity result in the data set with Rattus norvegicus [1] and in the data set on Rattus norvegicus [2] was “Non-toxic” each time. In addition, in the data set on Rattus norvegicus [3], the outcome was Active. Further, the Ki was found to be 6.6 nM in data set [4] and 20 nM in data set [7] (read-out: Ki). Also, the results for the IC50 in data set [5] and in data set [6] (read-out: IC50) were 174 nM and 1210 nM, respectively.
For the compound `CC(C(=O)NCc1ccc(C(F)(F)F)nc1N1CCC(Cc2ccc(F)c(F)c2)CC1)c1ccc(NS(C)(=O)=O)c(F)c1` (racemic), the IC50 in [6] (read-out: IC50) is 30 nM. Also, the Ki in data set [7] (read-out: Ki) amounted to 0.2 nM.
Consider `CC(C(=O)NCc1ccc(C(F)(F)F)nc1N1CCCCCC1)c1ccc(NS(C)(=O)=O)c(F)c1` (racemic), for which the IC50 in data set [6] (read-out: IC50) turned out to be 25.1 nM. For the same compound, the inhibitory constant (Ki) in data set [7] (read-out: Ki) stood at 0.8 nM.
With `C[C@H](C(=O)NCc1ccc(C(F)(F)F)nc1N1CC[C@@H](N(C)C)C1)c1ccc(NS(C)(=O)=O)c(F)c1`, the inhibition constant Ki in data set [7] (read-out: Ki) came to 101 nM.
As for `CC1CCC(Nc2nc(C(F)(F)F)ccc2CNC(=O)C(C)c2ccc(NS(C)(=O)=O)c(F)c2)CC1` (racemic), in [6] (read-out: IC50), the half-inhibitory concentration (IC50) worked out at 1130 nM. In addition, in data set [7] (read-out: Ki), the inhibition constant Ki was found to be 27.2 nM.
Take `CC(C(=O)NCc1ccc(C(F)(F)F)nc1NCc1cccnc1)c1ccc(NS(C)(=O)=O)c(F)c1` (racemic): in data set [6] (cho-k1), the IC50 entry is listed as “Not Active”. Besides, the Ki entry in data set [7] (cho-k1) is “Not Active”.
As to `CC(C(=O)NCc1ccc(C(F)(F)F)nc1N1CCCCC1)c1ccc(NS(C)(=O)=O)c(F)c1` (racemic), in [7] (read-out: Ki), the inhibition constant (Ki) worked out at 0.43 nM.
As for `Cc1ccc(CC2CCN(c3nc(C(F)(F)F)ccc3CNC(=O)C(C)c3ccc(NS(C)(=O)=O)c(F)c3)CC2)cc1` (racemic), the 50% inhibitory concentration (IC50) in data set [6] (read-out: IC50) was determined as 17 nM. For the same compound, the inhibition constant Ki in data set [7] (read-out: Ki) turned out to be 0.2 nM.
Consider `C[C@H](C(=O)NCc1ccc(C(F)(F)F)nc1N1CC[C@H](NC(=O)OC(C)(C)C)C1)c1ccc(NS(C)(=O)=O)c(F)c1`, for which the half-maximal inhibitory concentration (IC50) in [6] (read-out: IC50) was found to be 737 nM. Further, in data set [7] (read-out: Ki), the Ki is 7.1 nM.
For the compound `CC(C(=O)NCc1ccc(C(F)(F)F)nc1N1CCN(c2ncccc2Cl)CC1)c1ccc(NS(C)(=O)=O)c(F)c1` (racemic), the half-maximal inhibitory concentration (IC50) in [6] (read-out: IC50) is 117 nM.
In general, Emax refers to the maximal effect, on the per cent scale that the assay sets. A word on the ED50: it is the midpoint of the dose-response relation. As for `CC1CCN(c2nc(C(F)(F)F)ccc2CNC(=O)[C@@H](C)c2ccc(NS(C)(=O)=O)c(F)c2)CC1`, the Activity entry with Rattus norvegicus [1] is “Non-toxic”; with Rattus norvegicus [2], “Non-toxic”; with Rattus norvegicus [10], “Dose-dependent effect”; with Mus musculus [11], “Toxic”; with Mus musculus [12], “Non-toxic”. Further, the outcome with Mus musculus [8] was Active. The maximal effect (Emax) at 3.16 mg/kg with Rattus norvegicus [9] amounted to 60%. In the data set on Rattus norvegicus [10], the 50% effective dose (ED50) was found to be 0.9 mg/kg. Besides, the inhibition constant Ki turned out to be 0.01 nM in data set [4] and 0.2 nM in data set [7] (read-out: Ki). Besides, the IC50 stood at 0.8 nM in data set [5] and 6.3 nM in data set [6] (read-out: IC50).
For the compound `O=C(/C=C/c1ccc(C(F)(F)F)nc1N1CCCCC1)Nc1ccc2cccnc2c1`, the concentration for half-maximal inhibition (IC50) result in [6] (cho-k1) was “Not Active”. The Ki in data set [7] (read-out: Ki) was 4.4 nM.
For `O=C(/C=C/c1ccc(C(F)(F)F)nc1N1CCOCC1)Nc1ccc2cccnc2c1`, the 50% inhibitory concentration (IC50) in data set [6] (read-out: IC50) amounted to 116 nM. Moreover, the inhibitory constant (Ki) in data set [7] (read-out: Ki) came out at 1.2 nM.
Take `C[C@H](C(=O)NCc1ccc(C(F)(F)F)nc1N1CCC[C@H]1C(=O)OC(C)(C)C)c1ccc(NS(C)(=O)=O)c(F)c1`: the IC50 in data set [6] (read-out: IC50) is 209 nM. For the same compound, in data set [7] (read-out: Ki), the inhibitory constant (Ki) turned out to be 2.6 nM.
As to `C[C@H](C(=O)NCc1ccc(C(F)(F)F)nc1N1CCCCC1)c1ccc(NS(C)(=O)=O)c(F)c1`, the IC50 in [6] (read-out: IC50) was found to be 46.7 nM.
Turning to `CC1CCN(c2nc(C(F)(F)F)ccc2CNC(=O)C(C)c2ccc(NS(C)(=O)=O)c(F)c2)CC1` (racemic), the IC50 in data set [6] (read-out: IC50) turned out to be 8.4 nM.
As for `C[C@H](C(=O)NCc1ccc(C(F)(F)F)nc1N1CCC[C@H]1C(=O)N(C)C)c1ccc(NS(C)(=O)=O)c(F)c1`, the 50% inhibitory concentration (IC50) entry in data set [6] (cho-k1) is given as “Not Active”.
Still for that read-out and setting: the same measure for `CC(C(=O)NCc1ccc(C(F)(F)F)nc1)c1ccc(NS(C)(=O)=O)c(F)c1` (racemic): “Not Active”.
For `CC(C(=O)NCc1ccc(C(F)(F)F)nc1N1CCC(C(=O)c2ccc(F)cc2)CC1)c1ccc(NS(C)(=O)=O)c(F)c1` (racemic), the IC50 in data set [6] (read-out: IC50) came out at 990 nM. In addition, the Ki in [7] (read-out: Ki) came out at 3.9 nM.
In the case of `C[C@H](C(=O)NCc1ccc(C(F)(F)F)nc1N1CC[C@@H](OCc2ccccc2)C1)c1ccc(NS(C)(=O)=O)c(F)c1`, the IC50 in data set [6] (read-out: IC50) was 50 nM. Further, in data set [7] (read-out: Ki), the inhibition constant Ki was 1.4 nM.
Turning to `CC(C(=O)NCc1ccc(C(F)(F)F)nc1N1CCN(c2ccc(C(F)(F)F)cc2)CC1)c1ccc(NS(C)(=O)=O)c(F)c1` (racemic), the half-maximal inhibitory concentration (IC50) in data set [6] (read-out: IC50) amounted to 117 nM. Moreover, the Ki in data set [7] (read-out: Ki) stood at 2.3 nM.
Turning to `CC(C)(C)c1ccc(CNC(=S)NCc2ccc(NS(C)(=O)=O)c(F)c2)cc1`, the 50% inhibitory concentration (IC50) result in [6] (cho-k1) is recorded as “Not Active”. In addition, in [7] (read-out: Ki), the Ki was 26 nM.
With `CC1CCCN1c1nc(C(F)(F)F)ccc1CNC(=O)[C@@H](C)c1ccc(NS(C)(=O)=O)c(F)c1` (stereo not given in full), in data set [7] (read-out: Ki), the Ki was determined as 0.3 nM.
Turning to `C[C@H](C(=O)NCc1ccc(C(F)(F)F)nc1N1CC[C@H](N(C)C)C1)c1ccc(NS(C)(=O)=O)c(F)c1`, in data set [7] (read-out: Ki), the Ki is 103 nM.
As for `CC(C(=O)NCc1ccc(C(F)(F)F)nc1N1CCC(O)CC1)c1ccc(NS(C)(=O)=O)c(F)c1` (racemic), the 50% inhibitory concentration (IC50) result in data set [6] (cho-k1) is listed as “Not Active”. Also, the Ki result in data set [7] (cho-k1) was “Not Active”.
For the compound `C[C@H](C(=O)NCc1ccc(C(F)(F)F)nc1N1CC[C@@H](NC(=O)OC(C)(C)C)C1)c1ccc(NS(C)(=O)=O)c(F)c1`, the IC50 in data set [6] (read-out: IC50) worked out at 757 nM. The inhibition constant Ki in [7] (read-out: Ki) was 11 nM.
Take `CC1CCN(c2nc(C(F)(F)F)ccc2CNC(=O)[C@H](C)c2ccc(NS(C)(=O)=O)c(F)c2)CC1`: the IC50 in data set [6] (read-out: IC50) worked out at 254 nM. In addition, in data set [7] (read-out: Ki), the Ki came to 9.8 nM.
For the compound `C[C@H](C(=O)NCc1ccc(C(F)(F)F)nc1N1CCC[C@H]1CO)c1ccc(NS(C)(=O)=O)c(F)c1`, the IC50 result in [6] (cho-k1) is “Not Active”.
Consider `CC(C(=O)NCc1ccc(C(F)(F)F)nc1N1CCC(Cc2cc(F)cc(F)c2)CC1)c1ccc(NS(C)(=O)=O)c(F)c1` (racemic), for which the half-inhibitory concentration (IC50) in data set [6] (read-out: IC50) was found to be 24 nM. The Ki in data set [7] (read-out: Ki) was 0.4 nM.
Consider `CC(C(=O)NCc1ccc(C(F)(F)F)nc1N1CCC(CN(C)C)CC1)c1ccc(NS(C)(=O)=O)c(F)c1` (racemic), for which the IC50 in data set [6] (read-out: IC50) was found to be 426 nM. In data set [7] (read-out: Ki), the inhibitory constant (Ki) came out at 2.1 nM.
